Results from patent US20260242419A1, “A CYCLIC PEPTIDE FOR TRAPPING INTERLEUKIN-1 BETA” (Merck Sharp & Dohme LLC, priority 2023, published 2026).
Starred links: 1 amine or outer side, 2 acyl side, 3 side chain; linkers in the order of their positions; H or OH if unused. Non-standard residues stand in square brackets, D forms with d. Residues, ends and D or L forms follow the SMILES beside them. Phe(4-(5-CO2H-2-pyrimidyl)) = N[C@@H](Cc1ccc(-c2ncc(C(=O)O)cn2)cc1)C(=O)O; Phe(4-(4-Ac-piperazinyl)) = CC(=O)N1CCN(c2ccc(C[C@H](N)C(=O)O)cc2)CC1; Trp(βS-Me,4-F) = C[C@@H](c1c[nH]c2cccc(F)c12)[C@H](N)C(=O)O; Bip(4'-COOH) = N[C@@H](Cc1ccc(-c2ccc(C(=O)O)cc2)cc1)C(=O)O; X37 = CC(=O)N1CCN(c2ccc(C[C@H](N[*:1])C(=O)[*:2])cn2)CC1; dPro(4R-Bzl(4-F)) = O=C(O)[C@H]1C[C@@H](Cc2ccc(F)cc2)CN1; X5 = O=C([C@H]1C[C@@H](Cc2ccccc2)CN1[*:1])[*:2]; Ala(pyrimidin-5-yl) = N[C@@H](Cc1cncnc1)C(=O)O; Phe(4-COOH) = N[C@@H](Cc1ccc(C(=O)O)cc1)C(=O)O; Pro(cis-4-F) = O=C(O)[C@@H]1C[C@H](F)CN1; 2Pal = N[C@@H](Cc1ccccn1)C(=O)O; 3Pal = N[C@@H](Cc1cccnc1)C(=O)O; 4Pal = N[C@@H](Cc1ccncc1)C(=O)O; Dab = NCC[C@H](N)C(=O)O; Aib = CC(C)(N)C(=O)O

Molecular target: T1, IL-1β (Homo sapiens, UniProt P01584)
T1 construct: purchased BioLegend 579404
Experiment: IL-6 assay in MRC5 cells: inhibition of IL-1β induced IL-6 secretion (AlphaLISA)
Assay type: cell-based
Conditions: inhibition of IL-1β induced IL-6 secretion in MRC5 cells; read-out: MRC5 IC50
Description: Procedure for IL-6 Assay in MRC5 Cells
The inhibition of IL-1β induced IL-6 secretion was evaluated in MRC5 cells. Recombinant human IL-1β (BioLegend 579404) at 2λ EC80 concentration was prepared in seeding medium. EMEM (ATCC 30-2003) with 0.025% BSA (Sigma A9576), 1×penicillin/streptomycin (Gibco 15070-063), 1×NEAA (Gibco 11140-050), 1×GlutaMax (Gibco 35050-061), and 1×sodium pyruvate (Gibco 11360-070), 20 μL of IL-1β was added to a 384-well collagen-coated plate (Corning 354664) and pre-incubated at ambient temperature for 1 hour with 200 nL of compound dispensed using an ECHO 555 liquid handler. Human lung fibroblast MRC5 cells (ATCC CCL-171) were added at a density of 3000 cells/20 μL per well. The cells were prepared by passaging three times in growth medium, EMEM (ATCC 30-2003) with 10% fetal bovine serum (Gibco 16140-071), 1×penicillin/streptomycin (Gibco 15070-063), 1×NEAA (Gibco 11140-050), 1×GlutaMax (Gibco 35050-061), and 1×sodium pyruvate (Gibco 11360-070) in collagen-coated T175 flasks (Greiner 661950) and harvested in seeding medium after 5 minutes of 0.25% trypsin-EDTA (Gibco 25200-056) digestion. The 384-well collagen-coated plate, containing a final volume of 40 μL, was incubated at 37° C., 5% CO2 overnight. 5 μL of the conditioned medium was transferred to a 384-well AlphaLISA plate (PerkinElmer 6005350) for detection of IL-6 using the human AlphaLISA IL-6 kit (PerkinElmer AL223F) as per the manufacturer's protocol. 20 μL of the acceptor bead/biotinylated antibody mix was added to the 384-well AlphaLISA plate and incubated for 1 hour at ambient temperature. The donor bead mix was protected from light and 25 μL was added to the plate and incubated for 30 minutes at ambient temperature. The AlphaLISA plate was read on an EnVision multimode plate reader (Perkin Elmer model 2104) using the AlphaScreen setting (laser exc at 680 nm and emis at […]). Dose response curves and IC50 values were analyzed using a 4-parameter logistic equation in Spotfire software (Tibco, Palo Alto, CA).

T1 sequence (P01584 117-269): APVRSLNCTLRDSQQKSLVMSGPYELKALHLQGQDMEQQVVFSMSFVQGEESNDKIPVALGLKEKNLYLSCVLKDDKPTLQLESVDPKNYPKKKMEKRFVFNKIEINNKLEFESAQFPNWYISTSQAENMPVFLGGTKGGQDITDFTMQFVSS

Row | IC50 [nM] | SMILES
1 | 0.026 | C[C@@H](c1c[nH]c2cccc(F)c12)[C@@H]1NC(=O)[C@@H]2C[C@H](F)CN2C(=O)CNC(=O)[C@H](Cc2ccc(C(=O)O)cc2)NC(=O)[C@H](Cc2ccncc2)NC(=O)[C@H](Cc2ccc(-c3ccc(C(=O)O)cc3)cc2)NC(=O)[C@H]2C[C@@H](Cc3ccccc3)CN2C(=O)CNC(=O)[C@H](CO)NC(=O)[C@H](CCC(N)=O)NC(=O)[C@H](Cc2cncnc2)NC(=O)C(C)(C)NC(=O)[C@H](Cc2c[nH]c3ccccc23)NC(=O)[C@H](CCC(=O)O)NC(=O)C(C)(C)NC1=O [Example 30] (cyclo([Bip(4'-COOH)][4Pal][Phe(4-COOH)]G[Pro(cis-4-F)][Trp(βS-Me,4-F)][Aib]EW[Aib][Ala(pyrimidin-5-yl)]QSG[X5]))
2 | 0.049 | C[C@@H](c1c[nH]c2cccc(F)c12)[C@@H]1NC(=O)[C@@H]2C[C@H](F)CN2C(=O)CNC(=O)[C@H](Cc2ccc(C(=O)O)cc2)NC(=O)[C@H](Cc2ccncc2)NC(=O)[C@H](Cc2ccc(-c3ccc(C(=O)O)cc3)cc2)NC(=O)[C@H]2C[C@@H](Cc3ccc(F)cc3)CN2C(=O)CNC(=O)[C@H](CO)NC(=O)[C@H](CCC(N)=O)NC(=O)[C@H](CCCNC(=N)N)NC(=O)C(C)(C)NC(=O)[C@H](Cc2c[nH]c3ccccc23)NC(=O)[C@H](CCC(=O)O)NC(=O)C(C)(C)NC1=O [Example 32] (cyclo([Bip(4'-COOH)][4Pal][Phe(4-COOH)]G[Pro(cis-4-F)][Trp(βS-Me,4-F)][Aib]EW[Aib]RQSG[dPro(4R-Bzl(4-F))]))
3 | 0.033 | C[C@@H](c1c[nH]c2cccc(F)c12)[C@@H]1NC(=O)[C@@H]2C[C@H](F)CN2C(=O)CNC(=O)[C@H](Cc2ccc(C(=O)O)cc2)NC(=O)[C@H](Cc2ccncc2)NC(=O)[C@H](Cc2ccc(-c3ccc(C(=O)O)cc3)cc2)NC(=O)[C@H]2C[C@@H](Cc3ccc(F)cc3)CN2C(=O)CNC(=O)[C@H](CCN)NC(=O)[C@H](CCC(N)=O)NC(=O)[C@H](CCCNC(=N)N)NC(=O)C(C)(C)NC(=O)[C@H](Cc2c[nH]c3ccccc23)NC(=O)[C@H](CCC(=O)O)NC(=O)C(C)(C)NC1=O [Example 33] (cyclo([Bip(4'-COOH)][4Pal][Phe(4-COOH)]G[Pro(cis-4-F)][Trp(βS-Me,4-F)][Aib]EW[Aib]RQ[Dab]G[dPro(4R-Bzl(4-F))]))
4 | 0.032 | C[C@@H](c1c[nH]c2cccc(F)c12)[C@@H]1NC(=O)[C@@H]2C[C@H](F)CN2C(=O)CNC(=O)[C@H](Cc2ccc(C(=O)O)cc2)NC(=O)[C@H](Cc2ccncc2)NC(=O)[C@H](Cc2ccc(-c3ccc(C(=O)O)cc3)cc2)NC(=O)[C@H]2C[C@@H](Cc3ccc(F)cc3)CN2C(=O)CNC(=O)[C@H](CO)NC(=O)[C@H](CCC(N)=O)NC(=O)[C@H](Cc2cccnc2)NC(=O)C(C)(C)NC(=O)[C@H](Cc2c[nH]c3ccccc23)NC(=O)[C@H](CCC(=O)O)NC(=O)C(C)(C)NC1=O [Example 34] (cyclo([Bip(4'-COOH)][4Pal][Phe(4-COOH)]G[Pro(cis-4-F)][Trp(βS-Me,4-F)][Aib]EW[Aib][3Pal]QSG[dPro(4R-Bzl(4-F))]))
5 | 0.049 | C[C@@H](c1c[nH]c2cccc(F)c12)[C@@H]1NC(=O)[C@@H]2C[C@H](F)CN2C(=O)CNC(=O)[C@H](Cc2ccc(C(=O)O)cc2)NC(=O)[C@H](Cc2ccncc2)NC(=O)[C@H](Cc2ccc(-c3ccc(C(=O)O)cc3)cc2)NC(=O)[C@H]2C[C@@H](Cc3ccc(F)cc3)CN2C(=O)CNC(=O)[C@H](CCCNC(=N)N)NC(=O)[C@H](CCC(N)=O)NC(=O)[C@H](Cc2ccccc2)NC(=O)C(C)(C)NC(=O)[C@H](Cc2c[nH]c3ccccc23)NC(=O)[C@H](CCC(=O)O)NC(=O)C(C)(C)NC1=O [Example 35] (cyclo([Bip(4'-COOH)][4Pal][Phe(4-COOH)]G[Pro(cis-4-F)][Trp(βS-Me,4-F)][Aib]EW[Aib]FQRG[dPro(4R-Bzl(4-F))]))
6 | 0.054 | C[C@@H](c1c[nH]c2cccc(F)c12)[C@@H]1NC(=O)[C@@H]2C[C@H](F)CN2C(=O)CNC(=O)[C@H](Cc2ccc(C(=O)O)cc2)NC(=O)[C@H](Cc2ccncc2)NC(=O)[C@H](Cc2ccc(-c3ccc(C(=O)O)cc3)cc2)NC(=O)[C@H]2C[C@@H](Cc3ccc(F)cc3)CN2C(=O)CNC(=O)[C@H](CO)NC(=O)[C@H](CCC(N)=O)NC(=O)[C@H](Cc2ccccn2)NC(=O)C(C)(C)NC(=O)[C@H](Cc2c[nH]c3ccccc23)NC(=O)[C@H](CCC(=O)O)NC(=O)C(C)(C)NC1=O [Example 36] (cyclo([Bip(4'-COOH)][4Pal][Phe(4-COOH)]G[Pro(cis-4-F)][Trp(βS-Me,4-F)][Aib]EW[Aib][2Pal]QSG[dPro(4R-Bzl(4-F))]))
7 | 0.033 | CC(=O)N1CCN(c2ccc(C[C@@H]3NC(=O)[C@H]4C[C@@H](Cc5ccc(F)cc5)CN4C(=O)CNC(=O)[C@H](CCN)NC(=O)[C@H](CCC(N)=O)NC(=O)[C@H](Cc4cncnc4)NC(=O)C(C)(C)NC(=O)[C@H](Cc4c[nH]c5ccccc45)NC(=O)[C@H](CCC(=O)O)NC(=O)C(C)(C)NC(=O)[C@H]([C@@H](C)c4c[nH]c5cccc(F)c45)NC(=O)[C@@H]4C[C@H](F)CN4C(=O)CNC(=O)[C@H](Cc4ccc(C(=O)O)cc4)NC(=O)[C@H](Cc4ccncc4)NC3=O)cc2)CC1 [Example 37] (cyclo([Phe(4-(4-Ac-piperazinyl))][4Pal][Phe(4-COOH)]G[Pro(cis-4-F)][Trp(βS-Me,4-F)][Aib]EW[Aib][Ala(pyrimidin-5-yl)]Q[Dab]G[dPro(4R-Bzl(4-F))]))
8 | 0.041 | C[C@@H](c1c[nH]c2cccc(F)c12)[C@@H]1NC(=O)[C@@H]2C[C@H](F)CN2C(=O)CNC(=O)[C@H](Cc2ccc(C(=O)O)cc2)NC(=O)[C@H](Cc2ccncc2)NC(=O)[C@H](Cc2ccc(-c3ncc(C(=O)O)cn3)cc2)NC(=O)[C@H]2C[C@@H](Cc3ccc(F)cc3)CN2C(=O)CNC(=O)[C@H](CCN)NC(=O)[C@H](CCC(N)=O)NC(=O)[C@H](Cc2cncnc2)NC(=O)C(C)(C)NC(=O)[C@H](Cc2c[nH]c3ccccc23)NC(=O)[C@H](CCC(=O)O)NC(=O)C(C)(C)NC1=O [Example 38] (cyclo([Phe(4-(5-CO2H-2-pyrimidyl))][4Pal][Phe(4-COOH)]G[Pro(cis-4-F)][Trp(βS-Me,4-F)][Aib]EW[Aib][Ala(pyrimidin-5-yl)]Q[Dab]G[dPro(4R-Bzl(4-F))]))
9 | 0.063 | CC(=O)N1CCN(c2ccc(C[C@@H]3NC(=O)[C@H]4C[C@@H](Cc5ccc(F)cc5)CN4C(=O)CNC(=O)[C@H](CCN)NC(=O)[C@H](CCC(N)=O)NC(=O)[C@H](Cc4cncnc4)NC(=O)C(C)(C)NC(=O)[C@H](Cc4c[nH]c5ccccc45)NC(=O)[C@H](CCC(=O)O)NC(=O)C(C)(C)NC(=O)[C@H]([C@@H](C)c4c[nH]c5cccc(F)c45)NC(=O)[C@@H]4C[C@H](F)CN4C(=O)CNC(=O)[C@H](Cc4ccc(C(=O)O)cc4)NC(=O)[C@H](Cc4ccncc4)NC3=O)cn2)CC1 [Example 39] (cyclo([X37][4Pal][Phe(4-COOH)]G[Pro(cis-4-F)][Trp(βS-Me,4-F)][Aib]EW[Aib][Ala(pyrimidin-5-yl)]Q[Dab]G[dPro(4R-Bzl(4-F))]))

Row | SMILES | IC50 [nM]
10 | C[C@@H](c1c[nH]c2cccc(F)c12)[C@@H]1NC(=O)[C@@H]2C[C@H](F)CN2C(=O)CNC(=O)[C@H](Cc2ccc(C(=O)O)cc2)NC(=O)[C@H](Cc2ccncc2)NC(=O)[C@H](Cc2ccc(-c3ccc(C(=O)O)cc3)cc2)NC(=O)[C@H]2C[C@@H](Cc3ccccc3)CN2C(=O)CNC(=O)[C@H](CCN)NC(=O)[C@H](CCC(N)=O)NC(=O)[C@H](Cc2cncnc2)NC(=O)C(C)(C)NC(=O)[C@H](Cc2c[nH]c3ccccc23)NC(=O)[C@H](CCC(=O)O)NC(=O)C(C)(C)NC1=O [Example 29] (cyclo([Bip(4'-COOH)][4Pal][Phe(4-COOH)]G[Pro(cis-4-F)][Trp(βS-Me,4-F)][Aib]EW[Aib][Ala(pyrimidin-5-yl)]Q[Dab]G[X5])) | 0.019
11 | C[C@@H](c1c[nH]c2cccc(F)c12)[C@@H]1NC(=O)[C@@H]2C[C@H](F)CN2C(=O)CNC(=O)[C@H](Cc2ccc(C(=O)O)cc2)NC(=O)[C@H](Cc2ccncc2)NC(=O)[C@H](Cc2ccc(-c3ccc(C(=O)O)cc3)cc2)NC(=O)[C@H]2C[C@@H](Cc3ccccc3)CN2C(=O)CNC(=O)[C@H](CCN)NC(=O)[C@H](CCC(N)=O)NC(=O)[C@H](Cc2cncnc2)NC(=O)C(C)(C)NC(=O)[C@H](Cc2c[nH]c3ccccc23)NC(=O)[C@H](CCC(=O)O)NC(=O)C(C)(C)NC1=O [Example 31] (cyclo([Bip(4'-COOH)][4Pal][Phe(4-COOH)]G[Pro(cis-4-F)][Trp(βS-Me,4-F)][Aib]EW[Aib][Ala(pyrimidin-5-yl)]Q[Dab]G[X5])) | 0.024
